According to BindingDB's records for doi:10.1002/cbic.201600267 (Fairfield University, 2016):

target: Beta-galactosidase (Escherichia coli (strain K12), UniProt P00722); assay: beta-Galactosidase Assay; conditions: 30 °C
Procedure: Enzymatic activity of beta-galactosidase from Escherichia coli (1.2 x 10^-10 M) was measured using the colorimetric substrate ortho-nitrophenyl-b-galactoside ([ONPG]: 2500, 2000, 1500, 1000, 500, 250, 125 uM) in Z-Buffer (100 mM sodium phosphate at pH = 7, 10 mM KCl, 1 mM MgSO4) to which was added fresh 50 mM beta-mercaptoethanol at 30 °C. In a 96-well plate were combined a 5x stock solution of Z-buffer (containing 250 mM beta-mercaptoethanol) and 5x stock solutions of ONPG. Samples were adjusted to a final volume of 180 uL with water. Samples were equilibrated at 30 °C for 5 minutes on a Synergy H1 microplate reader. A 10x stock solution of enzyme (20 uL) was then injected into each well and the production of 2-nitrophenol was quantified at 410 nm over a period of 10 minutes.

Beta-galactosidase, sequence (P00722 whole entry): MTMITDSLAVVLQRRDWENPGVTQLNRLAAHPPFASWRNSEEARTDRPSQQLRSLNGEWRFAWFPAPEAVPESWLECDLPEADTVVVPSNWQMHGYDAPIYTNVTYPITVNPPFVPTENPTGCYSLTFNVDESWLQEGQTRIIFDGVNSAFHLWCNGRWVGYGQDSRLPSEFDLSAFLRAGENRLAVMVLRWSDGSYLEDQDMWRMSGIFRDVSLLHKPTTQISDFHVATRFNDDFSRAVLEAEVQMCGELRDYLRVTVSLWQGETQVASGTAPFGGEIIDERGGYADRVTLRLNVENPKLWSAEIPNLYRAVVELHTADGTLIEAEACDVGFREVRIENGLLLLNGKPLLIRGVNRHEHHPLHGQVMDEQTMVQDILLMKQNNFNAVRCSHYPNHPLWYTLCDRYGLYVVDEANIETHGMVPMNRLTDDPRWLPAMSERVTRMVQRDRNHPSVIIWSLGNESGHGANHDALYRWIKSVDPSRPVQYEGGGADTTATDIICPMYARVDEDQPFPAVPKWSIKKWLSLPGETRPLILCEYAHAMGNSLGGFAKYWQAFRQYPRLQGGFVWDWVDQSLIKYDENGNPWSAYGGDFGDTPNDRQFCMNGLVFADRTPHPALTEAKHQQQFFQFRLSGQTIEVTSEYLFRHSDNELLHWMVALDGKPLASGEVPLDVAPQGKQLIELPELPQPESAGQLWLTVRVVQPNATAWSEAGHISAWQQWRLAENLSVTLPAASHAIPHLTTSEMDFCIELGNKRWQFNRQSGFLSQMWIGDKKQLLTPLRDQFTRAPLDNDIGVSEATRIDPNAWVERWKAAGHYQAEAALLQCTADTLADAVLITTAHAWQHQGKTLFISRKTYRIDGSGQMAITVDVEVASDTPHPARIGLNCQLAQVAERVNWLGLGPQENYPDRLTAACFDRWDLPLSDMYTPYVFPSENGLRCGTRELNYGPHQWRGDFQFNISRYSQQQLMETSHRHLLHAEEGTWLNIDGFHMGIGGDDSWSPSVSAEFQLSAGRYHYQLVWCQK

Compound	Ki
O=C(NCCOCCOCCOCCNC(=O)c1ccc(C(=O)OCCS[C@@H]2O[C@H](CO)[C@H](O)[C@H](O)[C@H]2O)c(C(c2ccccc2)c2ccccc2)c1)c1ccc(C(=O)c2ccccc2)cc1 [β-gal inhibitor, 13]	3 µM
O=C(NCCOCCOCCOCCNC(=O)c1ccc(C(=O)OCCOCCS[C@@H]2O[C@H](CO)[C@H](O)[C@H](O)[C@H]2O)c(C(c2ccccc2)c2ccccc2)c1)c1ccc(C(=O)c2ccccc2)cc1 [β-gal inhibitor, 14]	3.9 µM
CC(C)S[C@@H]1O[C@H](CO)[C@H](O)[C@H](O)[C@H]1O [IPTG]	76 µM
O=C(NCCOCCOCCOCCNC(=O)c1ccc(C(=O)OCCOCCOCCOCCS[C@@H]2O[C@H](CO)[C@H](O)[C@H](O)[C@H]2O)c(C(c2ccccc2)c2ccccc2)c1)c1ccc(C(=O)c2ccccc2)cc1 [β-gal inhibitor, 15]	5.9 µM
